Data from ChEMBL document CHEMBL4665798, “Novel Human Urate Transporter 1 Inhibitors as Hypouricemic Drug Candidates with Favorable Druggability” (J Med Chem, 2020).

Experiments:
[1] = Sub-acute toxicity in male Kunming mouse assessed as increase in body weight at 50 mg/kg, po administered once every second day for 14 days; format: organism-based; conditions: in vivo, 336 h, time 14 day
[2] = Sub-acute toxicity in Kunming mouse assessed as congestion in hepatic central vein at 50 mg/kg, po administered as single dose every other day for 14 days by H and E staining based assay; format: organism-based; conditions: in vivo, 336 h, time 14 day
[3] = Sub-acute toxicity in Kunming mouse assessed as anorexia at 50 mg/kg, po administered once every second day for 14 days; format: organism-based; conditions: in vivo, 336 h, time 14 day
[4] = Sub-acute toxicity in Kunming mouse assessed as ballooning degeneration of liver at 50 mg/kg, po administered as single dose every other day for 14 days by H and E staining based assay; format: organism-based; conditions: in vivo, 336 h, time 14 day
Cytochrome P450 2C19 = Cytochrome P450 2C19 (Homo sapiens, UniProt P33261); assay: Inhibition of CYP2C19 in human liver microsome using probe substrate measured after 20 mins in presence of NADPH by LC-MS/MS analysis
Sequence of Cytochrome P450 2C19 (P33261 whole entry): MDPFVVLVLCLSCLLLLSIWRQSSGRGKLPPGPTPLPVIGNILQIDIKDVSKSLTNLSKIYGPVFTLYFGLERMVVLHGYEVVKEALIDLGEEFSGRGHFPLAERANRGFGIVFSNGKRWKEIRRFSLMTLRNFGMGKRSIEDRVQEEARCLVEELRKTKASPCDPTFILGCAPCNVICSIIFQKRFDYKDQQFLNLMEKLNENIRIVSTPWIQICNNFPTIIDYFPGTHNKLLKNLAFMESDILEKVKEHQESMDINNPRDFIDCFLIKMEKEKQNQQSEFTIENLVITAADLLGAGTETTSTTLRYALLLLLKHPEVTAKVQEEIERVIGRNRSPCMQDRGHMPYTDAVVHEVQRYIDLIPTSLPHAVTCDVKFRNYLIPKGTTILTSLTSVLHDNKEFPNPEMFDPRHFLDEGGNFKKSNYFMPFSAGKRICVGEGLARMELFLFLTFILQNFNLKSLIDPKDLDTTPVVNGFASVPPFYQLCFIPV

Cytochrome P450 2D6 = Cytochrome P450 2D6 (Homo sapiens, UniProt P10635); assay: Inhibition of CYP2D6 in human liver microsome using probe substrate measured after 20 mins in presence of NADPH by LC-MS/MS analysis
Sequence of Cytochrome P450 2D6 (P10635 whole entry): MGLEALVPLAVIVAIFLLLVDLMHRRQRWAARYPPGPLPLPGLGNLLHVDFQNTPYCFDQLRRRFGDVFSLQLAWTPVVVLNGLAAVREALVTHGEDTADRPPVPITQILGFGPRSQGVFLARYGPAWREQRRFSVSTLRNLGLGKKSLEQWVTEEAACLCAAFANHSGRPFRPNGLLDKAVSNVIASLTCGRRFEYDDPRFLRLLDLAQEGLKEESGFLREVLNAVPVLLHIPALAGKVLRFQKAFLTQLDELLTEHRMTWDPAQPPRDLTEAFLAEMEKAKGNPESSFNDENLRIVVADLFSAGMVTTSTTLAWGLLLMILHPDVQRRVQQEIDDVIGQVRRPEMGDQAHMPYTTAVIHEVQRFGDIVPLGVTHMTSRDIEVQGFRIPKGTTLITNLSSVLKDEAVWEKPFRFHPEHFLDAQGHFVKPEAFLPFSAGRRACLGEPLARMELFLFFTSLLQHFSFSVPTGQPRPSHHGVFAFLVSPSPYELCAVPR

[5] = Acute toxicity in female Kunming mouse assessed as change in body weight at 500 mg/kg, ig measured for 1 week; format: organism-based; conditions: in vivo, po, 168 h, time 1 weeks
[6] = Acute toxicity in Kunming mouse assessed as induction of abnormal behaviors by measuring lethargy at 500 mg/kg, ig; format: organism-based; conditions: in vivo, po
Cytochrome P450 2C9 = Cytochrome P450 2C9 (Homo sapiens, UniProt P11712); assay: Inhibition of CYP2C9 in human liver microsome using probe substrate measured after 20 mins in presence of NADPH by LC-MS/MS analysis
Sequence of Cytochrome P450 2C9 (P11712 whole entry): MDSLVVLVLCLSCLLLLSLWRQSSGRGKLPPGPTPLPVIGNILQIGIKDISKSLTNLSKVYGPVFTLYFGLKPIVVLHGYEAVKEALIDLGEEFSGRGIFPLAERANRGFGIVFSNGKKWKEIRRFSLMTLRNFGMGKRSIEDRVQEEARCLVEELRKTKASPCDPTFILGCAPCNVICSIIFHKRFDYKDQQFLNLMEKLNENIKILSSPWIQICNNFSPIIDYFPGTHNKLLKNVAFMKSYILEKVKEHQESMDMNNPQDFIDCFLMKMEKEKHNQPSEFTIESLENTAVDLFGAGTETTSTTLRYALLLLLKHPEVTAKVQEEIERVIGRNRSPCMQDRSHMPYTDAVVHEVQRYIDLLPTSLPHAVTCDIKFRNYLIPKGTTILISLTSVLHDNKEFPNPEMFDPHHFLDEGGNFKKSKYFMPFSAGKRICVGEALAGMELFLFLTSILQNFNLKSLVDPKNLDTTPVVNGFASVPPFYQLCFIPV

[7] = Sub-acute toxicity in Kunming mouse assessed as lethargy at 50 mg/kg, po administered once every second day for 14 days; format: organism-based; conditions: in vivo, 336 h, time 14 day
Cytochrome P450 3A4 = Cytochrome P450 3A4 (Homo sapiens, UniProt P08684); assay: Inhibition of CYP3A4 in human liver microsome using midazolam as substrate measured after 20 mins in presence of NADPH by LC-MS/MS analysis
Sequence of Cytochrome P450 3A4 (P08684 whole entry): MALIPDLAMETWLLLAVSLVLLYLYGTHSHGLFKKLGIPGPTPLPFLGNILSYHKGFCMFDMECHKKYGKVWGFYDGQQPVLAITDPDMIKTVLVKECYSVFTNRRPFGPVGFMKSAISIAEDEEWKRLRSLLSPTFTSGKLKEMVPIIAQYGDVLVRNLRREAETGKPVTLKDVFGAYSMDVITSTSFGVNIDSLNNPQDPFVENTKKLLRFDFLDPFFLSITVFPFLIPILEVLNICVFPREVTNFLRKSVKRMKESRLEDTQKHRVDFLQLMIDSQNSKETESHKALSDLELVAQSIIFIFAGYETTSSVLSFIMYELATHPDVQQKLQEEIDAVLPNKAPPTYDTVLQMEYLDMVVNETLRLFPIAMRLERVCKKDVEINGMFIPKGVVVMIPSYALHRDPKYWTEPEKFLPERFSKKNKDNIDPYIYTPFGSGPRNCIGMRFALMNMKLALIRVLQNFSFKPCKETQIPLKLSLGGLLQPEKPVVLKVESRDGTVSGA

[8] = MRT (0 to infinity) in Sprague-Dawley rat at 1 mg/kg, iv by LC-MS analysis; format: ADME, organism-based; conditions: in vivo
[9] = Sub-acute toxicity in Kunming mouse assessed as appearance of ruffled fur at 50 mg/kg, po administered once every second day for 14 days; format: organism-based; conditions: in vivo, 336 h, time 14 day
[10] = Clearance in Sprague-Dawley rat at 1 mg/kg, iv by LC-MS analysis; format: ADME, organism-based; conditions: in vivo
[11] = Acute toxicity in Kunming mouse assessed as death at 500 mg/kg, ig measured for 1 week; format: organism-based; conditions: in vivo, po, 168 h, time 1 weeks
[12] = Sub-acute toxicity in Kunming mouse assessed as death at 50 mg/kg, po administered once every second day for 14 days; format: organism-based; conditions: in vivo, 336 h, time 14 day
[13] = Acute toxicity in male Kunming mouse assessed as change in body weight at 500 mg/kg, ig measured for 1 week; format: organism-based; conditions: in vivo, po, 168 h, time 1 weeks
[14] = AUC (0 to t) in Sprague-Dawley rat at 1 mg/kg, iv by LC-MS analysis; format: ADME, organism-based; design: dose 1 mg/kg; conditions: in vivo
[15] = AUC (0 to infinity) in Sprague-Dawley rat at 1 mg/kg, iv by LC-MS analysis; format: ADME, organism-based; design: time infinity, route intravenous, dose 1 mg/kg; conditions: in vivo
Cytochrome P450 1A2 = target: T1, Cytochrome P450 1A2 (Homo sapiens, UniProt P05177); assay: Inhibition of CYP1A2 in human liver microsome using probe substrate measured after 20 mins in presence of NADPH by LC-MS/MS analysis
T1 sequence (P05177 whole entry): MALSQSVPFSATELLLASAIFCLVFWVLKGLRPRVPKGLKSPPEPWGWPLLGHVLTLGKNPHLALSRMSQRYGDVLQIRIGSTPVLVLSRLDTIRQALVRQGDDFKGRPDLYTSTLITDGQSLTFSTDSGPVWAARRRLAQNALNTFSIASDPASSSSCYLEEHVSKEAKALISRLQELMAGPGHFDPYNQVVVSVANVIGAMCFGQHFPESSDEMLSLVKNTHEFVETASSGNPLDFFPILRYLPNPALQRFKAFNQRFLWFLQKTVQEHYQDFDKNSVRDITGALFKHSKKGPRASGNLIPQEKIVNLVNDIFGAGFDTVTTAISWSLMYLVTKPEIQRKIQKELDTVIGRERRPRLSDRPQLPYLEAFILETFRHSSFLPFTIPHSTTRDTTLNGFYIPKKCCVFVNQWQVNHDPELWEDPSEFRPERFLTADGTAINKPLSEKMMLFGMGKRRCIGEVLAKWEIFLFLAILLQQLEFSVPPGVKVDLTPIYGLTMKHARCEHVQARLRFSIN

[16] = Half-life in Sprague-Dawley rat at 1 mg/kg, iv by LC-MS analysis; format: ADME, organism-based; conditions: in vivo
[17] = target: T2, Solute carrier family 22 member 12 (Homo sapiens, UniProt Q96S37); assay: Inhibition of human URAT1 expressed in HEK293T cells assessed as reduction in [14C]uric acid uptake preincubated for 15 mins followed by [14C]uric acid addition by liquid scintillation counting method; format: cell-based
T2 sequence (Q96S37 whole entry): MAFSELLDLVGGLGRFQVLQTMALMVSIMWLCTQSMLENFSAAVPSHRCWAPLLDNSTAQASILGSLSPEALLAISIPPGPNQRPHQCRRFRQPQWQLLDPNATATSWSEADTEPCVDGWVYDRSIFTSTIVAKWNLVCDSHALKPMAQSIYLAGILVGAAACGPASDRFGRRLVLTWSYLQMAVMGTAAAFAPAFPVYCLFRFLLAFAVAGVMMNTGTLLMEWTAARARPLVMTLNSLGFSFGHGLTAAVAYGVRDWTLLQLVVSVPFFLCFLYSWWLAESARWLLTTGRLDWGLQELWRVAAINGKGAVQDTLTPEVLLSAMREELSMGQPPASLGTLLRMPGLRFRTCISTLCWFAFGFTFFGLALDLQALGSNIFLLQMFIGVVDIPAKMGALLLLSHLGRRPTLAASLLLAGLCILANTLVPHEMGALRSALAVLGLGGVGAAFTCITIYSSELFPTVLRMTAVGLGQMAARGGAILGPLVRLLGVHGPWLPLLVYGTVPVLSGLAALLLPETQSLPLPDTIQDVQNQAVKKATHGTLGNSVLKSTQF

[18] = Acute toxicity in Kunming mouse assessed as induction of abnormal behaviors by measuring clonic convulsion at 500 mg/kg, ig; format: organism-based; conditions: in vivo, po
[19] = Sub-acute toxicity in female Kunming mouse assessed as increase in body weight at 50 mg/kg, po administered once every second day for 14 days; format: organism-based; conditions: in vivo, 336 h, time 14 day
[20] = Acute toxicity in Kunming mouse assessed as induction of abnormal behaviors by measuring anorexia at 500 mg/kg, ig; format: organism-based; conditions: in vivo, po
[21] = Sub-acute toxicity in Kunming mouse assessed as hepatocellular condensation of liver at 50 mg/kg, po administered as single dose every other day for 14 days by H and E staining based assay; format: organism-based; conditions: in vivo, 336 h, time 14 day
[22] = Sub-acute toxicity in Kunming mouse assessed as clonic convulsion at 50 mg/kg, po administered once every second day for 14 days; format: organism-based; conditions: in vivo, 336 h, time 14 day

SMILES	Activity [1]	Activity [2]	Activity [3]	Activity [4]	IC50 (Cytochrome P450 2C19)	IC50 (Cytochrome P450 2D6)	Activity [5]	Activity [6]	IC50 (Cytochrome P450 2C9)	Activity [7]	IC50 (Cytochrome P450 3A4)	MRT inf [8]	Activity [9]	clearance [10]	Activity [11]	Activity [12]	Activity [13]	AUC(0-t) [14]	AUC(0-inf) [15]	IC50 (Cytochrome P450 1A2)	also measured
O=C(CSc1nnc(Br)n1-c1ccc(C2CC2)c2ccccc12)NS(=O)(=O)c1ccc(Br)cc1	Non-Toxic	Non-Toxic	Non-Toxic	Non-Toxic	20.6 µM	> 50 µM	Non-Toxic	Non-Toxic	0.636 µM	Non-Toxic	> 50 µM	4.3 h	Non-Toxic	0.328 L/h/kg	Non-Toxic	Non-Toxic	Non-Toxic	3.03 µg·h/mL	3.09 µg·h/mL	> 50 µM	half-life [16]: 5 h; IC50 [17]: 4.17 µM; Activity [18]: Non-Toxic; Activity [19]: Non-Toxic; Activity [20]: Non-Toxic; Activity [21]: Non-Toxic; Activity [22]: Non-Toxic
CC(Sc1nc2ncccc2n1-c1ccc(C2CC2)c2ccccc12)C(=O)O (racemic)	Non-Toxic	Non-Toxic	Non-Toxic	Non-Toxic	48.7 µM	> 50 µM	Non-Toxic	Non-Toxic	20 µM	Non-Toxic	> 50 µM	2.7 h	Non-Toxic	0.264 L/h/kg	Non-Toxic	Non-Toxic	Non-Toxic	3.48 µg·h/mL	3.91 µg·h/mL	> 50 µM	half-life [16]: 3.1 h; IC50 [17]: 1.57 µM; Activity [18]: Non-Toxic; Activity [19]: Non-Toxic; Activity [20]: Non-Toxic; Activity [21]: Non-Toxic; Activity [22]: Non-Toxic
